Assay results reported in US9642869B2, “Boronic acid derivatives and therapeutic uses thereof” (Rempex Pharmaceuticals, Inc., priority 2013, dated 2017).

Assays:
SHV-5 ec308 [1] = assay: Aztreonam potentiation (MPC@4); assay type: cell-based; settings: minimum BLI concentration inhibiting growth with 4 μg/mL aztreonam
KPC-2 KP1004 = assay: Aztreonam potentiation (MPC@4); assay type: cell-based; settings: minimum BLI concentration inhibiting growth with 4 μg/mL aztreonam
ECL1002 [2] = assay: Aztreonam potentiation (MPC@4); assay type: cell-based; settings: minimum BLI concentration inhibiting growth with 4 μg/mL aztreonam
CTX-M-14 KP1005 = assay type: cell-based
CTX-M-15 KP1009 = assay type: cell-based
SHV-5 ec308 [3] = assay type: cell-based; settings: minimum BLI concentration inhibiting growth with tigemonam at 4 μg/mL
ECL1002 [4] = assay type: cell-based; settings: minimum BLI concentration inhibiting growth with tigemonam at 4 μg/mL
KP1004 KPC-2 = assay: Biapenem potentiation (MPC@1); assay type: cell-based; settings: minimum BLI concentration inhibiting growth with 1 μg/mL biapenem
Description: (§1) Biapenem was present in the test medium at 1 μg/mL. […] Table 3 summarizes the BLI potency of biapenem potentiation (MPC@1) for two strains overexpressing class A (KPC) and class D (OXA-48) carbapenemases. Biapenem MIC for each strain is also shown.

OXA-48 KP1086 = assay: Biapenem potentiation (MPC@1); assay type: cell-based; settings: minimum BLI concentration inhibiting growth with 1 μg/mL biapenem
Description: as §1

SHV-12 = SHV-12 (Klebsiella pneumoniae, UniProt P0AD64, E235K/G234S/L31Q); assay: Inhibition of nitrocefin cleavage by purified enzyme (Ki); assay type: biochemical; settings: nitrocefin reporter substrate, 10 min preincubation; read-out: Ki (SHV-12, NCF)
Description: Purified enzymes were mixed with various concentrations of inhibitors in reaction buffer and incubated for 10 min at room temperature. Nitrocefin was added and substrate cleavage profiles were recorded at 490 nm every 10 sec for 10 min.

Chain of SHV-12 (P0AD64 22-286 L31Q/G234S/E235K): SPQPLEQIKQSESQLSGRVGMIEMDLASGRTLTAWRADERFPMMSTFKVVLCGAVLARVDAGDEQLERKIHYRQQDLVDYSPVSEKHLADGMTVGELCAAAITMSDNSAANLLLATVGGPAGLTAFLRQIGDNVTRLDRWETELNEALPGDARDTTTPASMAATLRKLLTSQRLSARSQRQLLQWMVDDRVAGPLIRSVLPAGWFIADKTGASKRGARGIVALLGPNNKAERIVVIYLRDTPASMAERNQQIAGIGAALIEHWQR

Structure (SMILES)	AZT MPC4 SHV-5 ec308 (SHV-5 ec308 [1])	AZT MPC4 KPC-2 KP1004 (KPC-2 KP1004)	AZT MPC4 ECL1002 (ECL1002 [2])	TIG MPC4 CTX-M-14 KP1005 (CTX-M-14 KP1005)	TIG MPC4 CTX-M-15 KP1009 (CTX-M-15 KP1009)	TIG MPC4 SHV-5 ec308 (SHV-5 ec308 [3])	TIG MPC4 ECL1002 (ECL1002 [4])	BPM MPC1 KP1004 KPC-2 (KP1004 KPC-2)	BPM MPC1 OXA-48 KP1086 (OXA-48 KP1086)	Ki (SHV-12) [nM]
CN(C)C(=O)CC(=O)N[C@H]1Cc2cccc(C(=O)O)c2OB1O [Compound 10, (R)-3-(3-(dimethylamino)-3-oxopropanamido)-2-hydroxy-3,4-dihydro-2H-benzo[e][1,2]oxaborinine-8-carboxylic acid]	Y (MIC of 1 μg/mL to 10 μg/mL)	X (MIC of less than 1 μg/mL)	Y (MIC of 1 μg/mL to 10 μg/mL)	Y (key: X: MIC of less than 1 μg/mL; Y: MIC of 1 μg/mL to 10 μg/mL; Z: MIC of greater than 10 μg/mL)	X (key: X: MIC of less than 1 μg/mL; Y: MIC of 1 μg/mL to 10 μg/mL; Z: MIC of greater than 10 μg/mL)	Y (MIC of 1 μg/mL to 10 μg/mL)	X (MIC of less than 1 μg/mL)	X (MIC of less than 1 μg/mL)	Y (MIC of 1 μg/mL to 10 μg/mL)	< 1
O=C(N[C@H]1Cc2cccc(C(=O)O)c2OB1O)c1cncs1 [Compound 15, (R)-2-hydroxy-3-(thiazole-5-carboxamido)-3,4-dihydro-2H-benzo[e][1,2]oxaborinine-8-carboxylic acid]	X (MIC of less than 1 μg/mL)	Y (MIC of 1 μg/mL to 10 μg/mL)	Y (MIC of 1 μg/mL to 10 μg/mL)	Y (key: X: MIC of less than 1 μg/mL; Y: MIC of 1 μg/mL to 10 μg/mL; Z: MIC of greater than 10 μg/mL)	Y (key: X: MIC of less than 1 μg/mL; Y: MIC of 1 μg/mL to 10 μg/mL; Z: MIC of greater than 10 μg/mL)	Y (MIC of 1 μg/mL to 10 μg/mL)	Y (MIC of 1 μg/mL to 10 μg/mL)	X (MIC of less than 1 μg/mL)	Y (MIC of 1 μg/mL to 10 μg/mL)	< 1
Cn1nnnc1SCC(=O)N[C@H]1Cc2cccc(C(=O)O)c2OB1O [Compound 2, (R)-2-hydroxy-3-(2-(1-methyl-1H-tetrazol-5-ylthio)acetamido)-3,4-dihydro-2H-benzo[e][1,2]oxaborinine-8-carboxylic acid]	X (MIC of less than 1 μg/mL)	Y (MIC of 1 μg/mL to 10 μg/mL)	Y (MIC of 1 μg/mL to 10 μg/mL)	X (key: X: MIC of less than 1 μg/mL; Y: MIC of 1 μg/mL to 10 μg/mL; Z: MIC of greater than 10 μg/mL)	Y (key: X: MIC of less than 1 μg/mL; Y: MIC of 1 μg/mL to 10 μg/mL; Z: MIC of greater than 10 μg/mL)	X (MIC of less than 1 μg/mL)	X (MIC of less than 1 μg/mL)	X (MIC of less than 1 μg/mL)	Y (MIC of 1 μg/mL to 10 μg/mL)	< 1
CSC(=O)N[C@H]1Cc2cccc(C(=O)O)c2OB1O [Compound 11, (R)-2-hydroxy-3-(methylthiocarbonylamino)-3,4-dihydro-2H-benzo[e][1,2]oxaborinine-8-carboxylic acid]	X (MIC of less than 1 μg/mL)	Y (MIC of 1 μg/mL to 10 μg/mL)	Y (MIC of 1 μg/mL to 10 μg/mL)	Y (key: X: MIC of less than 1 μg/mL; Y: MIC of 1 μg/mL to 10 μg/mL; Z: MIC of greater than 10 μg/mL)	Y (key: X: MIC of less than 1 μg/mL; Y: MIC of 1 μg/mL to 10 μg/mL; Z: MIC of greater than 10 μg/mL)	Y (MIC of 1 μg/mL to 10 μg/mL)	Y (MIC of 1 μg/mL to 10 μg/mL)	X (MIC of less than 1 μg/mL)	Y (MIC of 1 μg/mL to 10 μg/mL)	< 1
CN(C)C(=O)C(=O)N[C@H]1Cc2cccc(C(=O)O)c2OB1O [Compound 9, (R)-3-(2-(dimethylamino)-2-oxoacetamido)-2-hydroxy-3,4-dihydro-2H-benzo[e][1,2]oxaborinine-8-carboxylic acid]	X (MIC of less than 1 μg/mL)	Y (MIC of 1 μg/mL to 10 μg/mL)	Y (MIC of 1 μg/mL to 10 μg/mL)	Y (key: X: MIC of less than 1 μg/mL; Y: MIC of 1 μg/mL to 10 μg/mL; Z: MIC of greater than 10 μg/mL)	Y (key: X: MIC of less than 1 μg/mL; Y: MIC of 1 μg/mL to 10 μg/mL; Z: MIC of greater than 10 μg/mL)	Y (MIC of 1 μg/mL to 10 μg/mL)	Y (MIC of 1 μg/mL to 10 μg/mL)	X (MIC of less than 1 μg/mL)	Z (MIC of greater than 10 μg/mL)	
